According to paper PMC6934184, “Selective DNA-PKcs inhibition extends the therapeutic index of localized radiotherapy and chemotherapy” (The Journal of Clinical Investigation, 2019):

Molecular target: T1, AKT3 (PKB gamma) (Homo sapiens, UniProt Q9Y243)
T1 construct: purchased Thermo Fisher Scientific (Life Technologies) SelectScreen
Assay: SelectScreen Z'LYTE
Type: biochemical
Outline: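 SelectScreen broad panel; activity (Z'LYTE, Adapta) plus binding formats. ATP: Km app for CSF1R Z'LYTE; 10 for CAMK1 Adapta. Readout = % per kinase.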

T1 sequence (Q9Y243 whole entry): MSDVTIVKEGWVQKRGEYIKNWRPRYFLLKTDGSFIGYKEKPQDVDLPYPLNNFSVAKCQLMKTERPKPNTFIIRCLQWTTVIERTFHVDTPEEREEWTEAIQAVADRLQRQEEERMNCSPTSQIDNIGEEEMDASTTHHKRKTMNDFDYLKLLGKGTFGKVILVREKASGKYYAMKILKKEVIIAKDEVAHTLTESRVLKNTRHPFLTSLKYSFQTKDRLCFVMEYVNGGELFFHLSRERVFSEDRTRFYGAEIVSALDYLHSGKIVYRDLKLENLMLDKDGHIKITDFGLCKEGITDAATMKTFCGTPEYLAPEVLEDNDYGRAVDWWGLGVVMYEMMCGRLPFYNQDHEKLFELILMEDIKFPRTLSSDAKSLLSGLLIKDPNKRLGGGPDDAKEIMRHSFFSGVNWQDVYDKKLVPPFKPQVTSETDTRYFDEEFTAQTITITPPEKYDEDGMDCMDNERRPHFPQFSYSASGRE

**Q.** For `CN(C(=O)CN1CCOCC1)c1ccc2sc3c(-c4cccc5c(=O)cc(N6CC7CCC(C6)O7)oc45)cccc3c2c1` [NU5455], which inhibition at 1 µM is on record?
**A.** -0.5%
